Measurements published in patent publication US9655965B2, “Radiosensitizer compounds for use in combination with radiation” (priority 2013, dated 2017).
Entries after “also recorded” stand apart in the source; their conditions may differ.

Tests used:
[1] = tested on: SCID mice; assay: In vivo toxicity of Compound B in SCID mice
Experimental: The three groups (five 6-8 week SCID mice/group) in the experiment were: (1) control article (5% EtOH/medium); (2) Compound B 5 mg/kg in 5% EtOH/medium; and (3) Compound B 7 mg/kg in 5% EtOH/medium, as shown in Table 1. Compound B was injected IP every day for 10 days.
6.1.2 Mouse and Compound B Solution Preparation: • 6-8 week SCID mice were used in this study; Compound B as an exemplary RSC was dissolved in 5% EtOH: 95% (cell culture) medium (≈1:20).
6-8 week SCID Mice were individually weighed and injected intraperitoneally (IP) according to body weight for an injection concentration as outlined in the study group table above. […]
The overall drug toxicity in mice was observed by a survival assay and body weight measurements, and the acute drug toxicity was measured by blood collection and histology. The hepatotoxicity (ALT, ALP, AST), nephrotoxicity (blood BUN, creatinine), and electrolytes (Na, K, etc) were analyzed by HPLC-mass spectroscopy. […]
All animals were observed post administration, and at least once a day, more if deemed necessary, during the pre-treatment and treatment periods for mortality and morbidity. In particular, animals were monitored for signs of ill health such as body weight loss, change in appetite, behavior changes such as altered gait, lethargy and gross manifestations of stress.

[2] = tested on: human normal cells (GM05757); assay: In vitro radiation-induced toxicity in human normal cells, MTT assay 12 days after X-ray; type: cell-based; details: GM05757, 12-hr treatment, then 0-10 Gy 225 keV X-ray, MTT at 12 days
Source text: (§1) Dibromo-diamino-benzene (Dibromo-phenylenediamine, Compound B) was obtained from TCI-America. Diiodo-diaminobenzene (Compound C) were synthesized, purified and crystallized in our laboratory, and the structures and purity were examined by NMR and mass spectrometry. MEM and fetal bovine serum (FBS), penicillin G and streptomycin were obtained from Hyclone Laboratories (UT, USA). Stock solution of cisplatin was freshly prepared in ultrapure water or saline, and stock solutions of Compounds A, B, C, D were prepared in pure ethanol, where the final concentration of ethanol was ≦1% when treated to cells.
A human skin diploid fibroblast (GM05757 cell line) was obtained from the Coriell Cell Repository directly. Fetal bovine serum (FBS) was obtained from Hyclone Laboratories (UT, USA). The GM05757 normal cells were cultivated with MEM (Hyclone) supplemented with 10% FBS, 100 units/mL penicillin G and 100 μg/mL streptomycin (Hyclone). The cells were maintained at 37° C. in a humidified atmosphere containing 5% CO2.
The radiosensitizing effects of RSCs on cell viability were determined by the 3-[4,5-dimethylthiazol-2-yl]-2,5-diphenyl tetrazoliumbromide (MTT) assay. Cells were cultured in 96-well plates (5×10^3 cells/well) for 24 h. The culture medium was replaced by fresh culture medium and incubated for 12 h with varying drug concentrations. The cells were then irradiated by 225 kV X-ray (PRECISION X-RAD IR 225) at a dose rate of 2 Gy/min with various X-ray doses. After irradiation, the cells were incubated for 12 days. The MTT assay of cell viability was then conducted. Briefly, 100 μl new medium without phenol red containing 1.2 mM MTT (sigma) (i.e., adding 10 μl 12 mM MTT stock solution in PBS) were added to each well and incubated for 4 h. […] The surviving fraction was determined by measuring the absorbance at 540 nm (570 nm for SDS solubilization) using a Multiskan Spectrum UV/Vis microplate reader (Thermo Scientific), which is directly proportional to the number of viable cells.

[3] = tested on: human cervical cancer (ME-180) cells; assay: In vitro radiosensitizing effect, MTT assay 6 days after X-ray, ME-180; type: cell-based
Source text: as §1, with “TCI—America.” for “TCI-America.”
A human skin diploid fibroblast (GM05757 cell line) was obtained from the Coriell Cell Repository directly, while the human cervical cancer cell line (HeLa, ATCC#: CCL-2; or ME-180), human ovarian cancer cell line (NIH:OVCAR-3, ATCC#: HTB-161) and human lung cancer cell line (A549, ATCC#: CCL-185™), together with RPMI 1640, F-12K, McCoy's 5 A and L-15 culture media, were obtained from the American Type Culture Collection (ATCC) directly. Fetal bovine serum (FBS) was obtained from Hyclone Laboratories (UT, USA). The GM05757 normal cells and HeLa cells were cultivated with MEM (Hyclone) supplemented with 10% FBS, 100 units/mL penicillin G and 100 μg/mL streptomycin (Hyclone). The complete growth media for ME-180, NIH:OVCAR-3, A549 and MDA-MB-231 cells were the ATCC-formulated McCoy's 5 A Medium supplemented with 10% FBS, RPMI 1640 medium with 20%, F-12K medium with 10% FBS, and L-15 Medium (Leibovitz) with 10% FBS, respectively. The cells were maintained at 37° C. in a humidified atmosphere containing 5% CO2.
The radiosensitizing effects of RSCs on cell viability were determined by the 3-[4,5-dimethylthiazol-2-yl]-2,5-diphenyl tetrazoliumbromide (MTT) assay. Cells were cultured in 96-well plates (5×10^3 cells/well) for 24 h. The culture medium was replaced by fresh culture medium and incubated for 12 h with varying drug concentrations. The cells were then irradiated by 225 kV X-ray (PRECISION X-RAD IR 225) at a dose rate of 2 Gy/min with various X-ray doses. After irradiation, the cells were incubated for 6 days. The MTT assay of cell viability was then conducted. Briefly, 100 μl new medium without phenol red containing 1.2 mM MTT (sigma) (i.e., adding 10 μl 12 mM MTT stock solution in PBS) were added to each well and incubated for 4 h. The medium was then removed, and the formazan crystals solubilized by 100 μL/well DMSO (or alternatively by 100 μl/well SDS and incubated for another 4 h). The surviving fraction was determined by measuring the absorbance at 540 nm (570 nm for SDS solubilization) using a Multiskan Spectrum UV/Vis microplate reader (Thermo Scientific), which is directly proportional to the number of viable cells.

In the case of `Nc1cc(Br)c(Br)cc1N` [Compound B, 4,5-dibromo-1,2-phenylenediamine], the “overall toxicity in mice (survival, body weight)” value ([1]; IP 0, 5 and 7 mg/kg daily for 10 days) is reported as “no overall drug toxicity; also recorded: no overall toxicity in mice”, the “survival rate of mice” value ([1]; SCID, mouse, in vivo, 10 days) is reported as 100% and the “radiation toxicity in human normal cells” value [2] is reported as “no radiation toxicity”. The “enhancement of radiosensitivity of cancer cells to X-ray” value ([3]; ME-180, 12-hr treatment, 0-10 Gy 225 keV X-ray, MTT at 6 days) was “significant enhancement in the radiosensitivity” and the “killing of cancer cells” value ([3]; ME-180, 50 Gy x-ray with about 100 μM compound, about 20% survived without any RSC) was “early all cancer cells were killed”.
